According to patent publication US11780845B2 (Relay Therapeutics, Inc., priority 2019, dated 2023):

Experiments:
FGFR2 [1] = molecular target: T1, FGFR2 (Homo sapiens (Human), UniProt P21802); assay: FGFR2 Biochemical Caliper Assay
Method: Compounds of the present invention were also tested in a FGFR2 Biochemical Caliper Assay. Compounds were prepared in 10 mM DMSO solution and serially diluted into 11 concentrations by 3-fold dilution. […] 5 uL of ATP solution (100 uM) was added to start the reaction and the plate was incubated for 90 minutes, then 70 uL of stopping buffer (0.5M EDTA) was added to terminate the reaction. Each well was analyzed using EZ reader.

SNU16 cells = assay: SNU16 Cancer Cell Line Proliferation Assay; format: cell-based; settings: SNU-16 cells
Method: Compounds of the present invention were also tested in a SNU16 Cancer Cell Line Proliferation Assay, Test compounds were prepared in a 10 mM DMSO stock solution. 45 uL of stock solution was transferred to a 384 well plate, and a 3-fold 11-point dolution was performed. SNU16 cells in a 384 well cell culture plate were seeded and incubated at 37 degrees for 24 hours. 40 nL of each concentration of compound was transferred from the compound plate to a corresponding well in the cell culture plate by Echo550 liquid handler. The plates were incubated for 96 hours, then equilibrated to room temperature for 15 minutes. 20 uL of CellTiter Glo reagent is added into each well, then the plate was shaken gently for 30 minutes at room temperature. Chemiluminescence was then read on an EnVision reader.

SNU-16 = assay: Cell SNU-16 assay; format: cell-based
FGFR2 [2] = molecular target: T1, FGFR2; assay: Biochemical FGFR2 Caliper assay
[3] = Homo sapiens, SNU-16, SNU-16 cells

T1 sequence (P21802 22-821): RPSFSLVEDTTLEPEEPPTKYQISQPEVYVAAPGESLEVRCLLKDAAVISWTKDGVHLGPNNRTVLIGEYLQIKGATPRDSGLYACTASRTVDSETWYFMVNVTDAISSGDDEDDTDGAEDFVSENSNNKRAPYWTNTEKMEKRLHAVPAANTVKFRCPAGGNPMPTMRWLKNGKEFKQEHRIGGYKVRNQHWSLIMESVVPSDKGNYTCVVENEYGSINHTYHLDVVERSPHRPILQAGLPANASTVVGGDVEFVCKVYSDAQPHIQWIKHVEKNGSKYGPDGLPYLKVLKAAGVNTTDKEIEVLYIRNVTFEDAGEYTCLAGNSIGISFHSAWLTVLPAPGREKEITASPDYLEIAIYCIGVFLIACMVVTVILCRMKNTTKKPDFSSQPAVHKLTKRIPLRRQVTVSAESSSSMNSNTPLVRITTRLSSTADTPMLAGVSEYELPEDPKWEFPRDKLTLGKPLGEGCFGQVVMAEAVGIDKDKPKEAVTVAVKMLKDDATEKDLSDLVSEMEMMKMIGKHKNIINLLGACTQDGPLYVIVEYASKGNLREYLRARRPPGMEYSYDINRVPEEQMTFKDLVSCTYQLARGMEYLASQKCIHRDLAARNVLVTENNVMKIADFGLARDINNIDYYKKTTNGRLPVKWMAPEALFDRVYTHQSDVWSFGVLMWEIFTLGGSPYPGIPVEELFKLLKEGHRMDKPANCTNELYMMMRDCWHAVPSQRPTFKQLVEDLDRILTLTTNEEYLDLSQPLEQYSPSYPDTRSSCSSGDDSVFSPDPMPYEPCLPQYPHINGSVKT

Structure (SMILES)	IC50 (FGFR2 [1])	IC50 (SNU16 cells; Homo sapiens)	IC50 (SNU-16; [3])	IC50 (FGFR2 [2])	also measured
C=C(C)C(=O)Nc1ccc(-c2c(C3=CC[C@@H](C(=O)N4CCCC4)CC3)c3c(N)ncnc3n2C)cc1 (single isomer, unassigned) [Example 397]	1000 to 100000 nM	250 to 1000 nM	–	–	–
C=C(C)C(=O)Nc1ccc(-c2c(C3=CC[C@H](C(=O)N4CCCC4)CC3)c3c(N)ncnc3n2C)cc1 (single isomer, unassigned) [Example 398]	< 100 nM	≤ 100 nM	–	–	–
C=C(C)C(=O)Nc1ccc(-c2c(C3=CC[C@@H](Oc4cccc(C)n4)CC3)c3c(N)ncnc3n2C)cc1 (single isomer, unassigned) [Example 451]	250 to 1000 nM	≤ 100 nM	–	–	–
C=C(C)C(=O)Nc1ccc(-c2c(C3=CC[C@H](Oc4cccc(C)n4)CC3)c3c(N)ncnc3n2C)cc1 (single isomer, unassigned) [Example 452]	1000 to 100000 nM	250 to 1000 nM	–	–	–
C=C(C)C(=O)Nc1ccc(-c2c(-c3ccc(C(=O)N4CC[C@@H]5C[C@@H]54)cc3)c3c(N)ncnc3n2C)c(F)c1 (single isomer, unassigned) [Example 464]	< 100 nM	≤ 100 nM	–	–	–
C=C(C)C(=O)Nc1ccc(-c2c(-c3ccc(C(=O)N4CC[C@H]5C[C@H]54)cc3)c3c(N)ncnc3n2C)c(F)c1 (single isomer, unassigned) [Example 466]	< 100 nM	≤ 100 nM	–	–	–
C=C(C)C(=O)Nc1ccc(-c2c(-c3ccc(Oc4nccc(C)n4)c(F)c3)c3c(N)ncnc3n2[C@H]2CCOC2)cc1 (single isomer, unassigned) [Example 538]	< 100 nM	≤ 100 nM	–	–	–
C=C(C)C(=O)Nc1ccc(-c2c(-c3ccc(Oc4nccc(C)n4)c(F)c3)c3c(N)ncnc3n2[C@@H]2CCOC2)cc1 (single isomer, unassigned) [Example 539]	< 100 nM	≤ 100 nM	–	–	–
C=C(C)C(=O)Nc1ccc(-c2c(C3=CC[C@H](Oc4ccn(C)n4)CC3)c3c(N)ncnc3n2C)cc1 (single isomer, unassigned) [Example 550]	100 to 250 nM	≤ 100 nM	–	–	–
C[C@@H](Cl)C(=O)Nc1ccc(-c2c(-c3ccc(C(=O)N4CCCC4)cc3)c3c(N)ncnc3n2C)cc1 (single isomer, unassigned) [Example 559]	250 to 1000 nM	250 to 1000 nM	–	–	–
C[C@H](Cl)C(=O)Nc1ccc(-c2c(-c3ccc(C(=O)N4CCCC4)cc3)c3c(N)ncnc3n2C)cc1 (single isomer, unassigned) [Example 560]	100 to 250 nM	100 to 250 nM	–	–	–
Cn1c(-c2ccc(NC(=O)C3=CCC3)cc2)c(C2=CC[C@@H](C(=O)N3CCCC3)CC2)c2c(N)ncnc21 (single isomer, unassigned) [Example 565]	< 100 nM	≤ 100 nM	–	–	–
C=C(C)C(=O)Nc1ccc(-c2c(C3=CC[C@@H](C(=O)N4CCC[C@H]4C#N)CC3)c3c(N)ncnc3n2C)cc1 (single isomer, unassigned) [Example 582]	< 100 nM	≤ 100 nM	–	–	–
Cn1c(-c2ccc(NC(=O)[C@@H]3CO3)cc2)c(-c2ccc(C(=O)N3CCCC3)cc2)c2c(N)ncnc21 (single isomer, unassigned) [Example 584]	100 to 250 nM	250 to 1000 nM	–	–	–
C=C(C)C(=O)Nc1ccc(-c2c(C3=CC[C@@H](C(=O)N4CC5CC5C4)CC3)c3c(N)ncnc3n2C)cc1 (single isomer, unassigned) [Example 592]	< 100 nM	≤ 100 nM	–	–	–
C=CC(=O)N1CC[C@@H](c2c(-c3ccc(Oc4ncccn4)cc3)c3c(N)ncnc3n2C)C1 (single isomer, unassigned) [Example 697]	< 100 nM	≤ 100 nM	–	–	–
C=CC(=O)N1CC[C@H](c2c(-c3ccc(Oc4ncccn4)cc3)c3c(N)ncnc3n2C)C1 (single isomer, unassigned) [Example 698]	250 to 1000 nM	100 to 250 nM	–	–	–
CC#CC(=O)Nc1ccc(-c2c(-c3ccc(Oc4cccc(C)n4)c(OC)c3)c3c(N)ncnc3n2C)cc1 [Example 18]	–	≤ 100 nM	–	–	–
C=C(C)C(=O)Nc1ccc(-c2c(-c3ccc(Oc4nccc(C)n4)c(F)c3)c3c(N)ncnc3n2C)cc1 [Example 343]	–	≤ 100 nM	–	–	–
C=C(C)C(=O)Nc1ccc(-c2c(-c3ccc(Oc4nccc(C)n4)c(F)c3)c3c(N)ncnc3n2C)c(C)c1 [Example 495]	–	–	–	–	IC50 (SNU16 cells): ≤ 100 nM
C=C(C)C(=O)Nc1ccc(-c2c(-c3ccc(Oc4nccc(C)n4)c(F)c3)c3c(N)ncnc3n2C)c(C(F)F)c1 [Example 496]	–	–	–	–	IC50 (SNU16 cells): ≤ 100 nM
C=C(C)C(=O)Nc1ccc(-c2c(-c3ccc(Oc4nccc(C)n4)c(F)c3)c3c(N)ncnc3n2C)c(C(F)F)c1 [Example 527]	–	–	–	–	IC50 (SNU16 cells): ≤ 100 nM
C=C(C)C(=O)Nc1ccc(-c2c(-c3ccc(Oc4nccc(C)n4)c(F)c3)c3c(N)ncnc3n2C)c(C)c1 [Example 531]	–	–	–	–	IC50 (SNU16 cells): ≤ 100 nM
C=C(C)C(=O)Nc1ccc(-c2c(-c3ccc(Oc4nccc(C)n4)c(F)c3)c3c(N)ncnc3n2C)c(CO)c1 [Example 535]	–	–	–	–	IC50 (SNU16 cells): ≤ 100 nM
C=CC(=O)N1CCC(c2c(-c3ccc(N4CCN(C(C)C)CC4)cc3)c3c(N)ncnc3n2C)C1 (stereo not drawn) [Example 770]	–	1000 to 100000 nM	–	–	–

Structure (SMILES)	IC50 (FGFR2 [1])	IC50 (SNU16 cells; Homo sapiens)	IC50 (SNU-16; [3])	IC50 (FGFR2 [2])	also measured
C#Cc1cc(OC)c(-c2c(-c3ncc(Oc4nccc(C)n4)cc3F)c3c(C)ncnc3n2C)cn1 [Example 1454]	–	–	≤ 100 nM	< 100 nM	–
C#Cc1cc2c(cn1)-c1c(-c3ccc(Oc4nccc(C)n4)c(F)c3)c3c(N)ncnc3n1C[C@H](C)O2 [Example 1455]	–	–	≤ 100 nM	< 100 nM	–
C#Cc1cc2c(cn1)-c1c(-c3ccc(Oc4nccc(C)n4)c(F)c3)c3c(N)ncnc3n1C[C@@H](C)O2 [Example 1456]	–	–	≤ 100 nM	< 100 nM	–
C#Cc1cc(OC)c(-c2c(-c3ccc(C(=O)NCC4(F)CCC4)c(OC)c3)c3c(C)ncnc3n2C)cn1 [Example 1457]	–	–	≤ 100 nM	100 to 250 nM	–
C#Cc1cc(N(C)C)c(-c2c(-c3ccc(Oc4nccc(C)n4)c(F)c3)c3c(N)ncnc3n2C)cn1 [Example 1458]	–	–	≤ 100 nM	< 100 nM	–
C#Cc1ccc2c(cc(-c3c(-c4ccc(Oc5nccc(C)n5)c(F)c4)c4c(N)ncnc4n3C)n2C)n1 [Example 1461]	–	–	100 to 250 nM	250 to 1000 nM	–
C#Cc1cc(C)c(-c2nn3c(c2-c2ccc(Oc4nccc(C)n4)c(F)c2)COCC3)cn1 [Example 1462]	–	–	1000 to 100000 nM	1000 to 100000 nM	–
C#Cc1cc(OC)c(-c2c(C3=CC[C@@H](C(=O)N4CCC[C@H]4C#N)CC3)c3c(C)ncnc3n2C)cn1 [Example 1467]	–	–	≤ 100 nM	250 to 1000 nM	–
C#Cc1cc(OC)c(-c2c(C3=CC[C@H](C(=O)N4CCC[C@H]4C#N)CC3)c3c(C)ncnc3n2C)cn1 [Example 1468]	–	–	≤ 100 nM	< 100 nM	–
C#Cc1cc(OC)c(-c2c(C3=CC[C@H](C(=O)N4CCC[C@H]4C#N)CC3)c3c(C)ncnc3n2C)c(C)n1 [Example 1473]	–	–	≤ 100 nM	< 100 nM	–
C#Cc1cc(OC)c(-c2c(C3=CC[C@@H](C(=O)N4CCC[C@H]4C#N)CC3)c3c(C)ncnc3n2C)c(C)n1 [Example 1475]	–	–	–	1000 to 100000 nM	IC50 (SNU-16; SNU-16 cells): 1000 to 100000 nM
C#Cc1cc(OC)c(-c2c(C3=CC[C@@H](C(=O)N4CCC[C@H]4C#N)CC3)c3c(C)ncnc3n2C)c(C)n1 [Example 1476]	–	–	–	1000 to 100000 nM	IC50 (SNU-16; SNU-16 cells): 250 to 1000 nM
C#Cc1cc2c(cn1)-c1c(-c3ccc(Oc4nccc(C)n4)c(F)c3)c3c(N)ncnc3n1CCC2 [Example 1477]	–	–	≤ 100 nM	< 100 nM	–
C#Cc1cc(CCCO)c(-c2[nH]c3ncnc(N)c3c2-c2ccc(Oc3nccc(C)n3)c(F)c2)cn1 [Example 1478]	–	–	100 to 250 nM	250 to 1000 nM	–
C#Cc1cc(C)c(-c2c(-c3ccc(Oc4nccc(C)n4)c(F)c3)c3c(CO)ncnc3n2C)cn1 [Example 1479]	–	–	≤ 100 nM	250 to 1000 nM	–
C=C(C)C(=O)Nc1ccc(-c2c(C3=CC[C@H](C(=O)N4CCCC4)CC3)c3c(N)ncnc3n2C)c(OC)c1 [Example 1480]	–	–	250 to 1000 nM	1000 to 100000 nM	–
C=C(C)C(=O)Nc1ccc(-c2c(C3=CC[C@H](C(=O)N4CCC[C@H]4C)CC3)c3c(N)ncnc3n2C)c(C)c1 [Example 1481]	–	–	100 to 250 nM	250 to 1000 nM	–
C=C(C)C(=O)Nc1cc(C)c(-c2c(C3=CC[C@H](C(=O)N4CCCC4)CC3)c3c(N)ncnc3n2C)c(F)c1 [Example 1482]	–	–	≤ 100 nM	< 100 nM	–
C=C(C)C(=O)Nc1cc(C)c(-c2c(C3=CC[C@@H](C(=O)N4CCCC4)CC3)c3c(N)ncnc3n2C)c(F)c1 [Example 1483]	–	–	≤ 100 nM	< 100 nM	–
C#Cc1ncc(-c2c(-c3ccc(Oc4nccc(C)n4)cn3)c3c(C)ncnc3n2C)c(C)c1F [Example 1488]	–	–	250 to 1000 nM	250 to 1000 nM	–
C#Cc1ncc(-c2c(-c3ccc(Oc4nccc(C)n4)cn3)c3c(N)ncnc3n2C)c(OC)c1F [Example 1490]	–	–	1000 to 100000 nM	1000 to 100000 nM	–
C#Cc1cc(OC)c(-c2c(-c3ccc(Oc4nccc(C)n4)cn3)c3c(N)ncnc3n2C)cn1 [Example 1491]	–	–	≤ 100 nM	< 100 nM	–
C#Cc1cc(C)c(-c2c(-c3ncc(Oc4nccc(C)n4)cc3F)c3c(N)ncnc3n2C)cn1 [Example 1492]	–	–	≤ 100 nM	< 100 nM	–
C#Cc1ccc2c(n1)OCCn1c-2c(-c2ccc(Oc3nccc(C)n3)c(F)c2)c2c(N)ncnc21 [Example 1495]	–	–	≤ 100 nM	< 100 nM	–
